{"source": "patent US8802433B2", "about": "“Macrophage phagocytosis-activating composition and/or composition promoting cytokine production in macrophages” (Aureo Co., Ltd., priority 2009, dated 2014)", "key": {"Jurkat cells": {"system": "Jurkat cells", "assay": "Exposure of phosphatidylserine in apoptotic Jurkat cells (Annexin V / propidium iodide, flow cytometry)", "format": "cell-based, human", "settings": "Jurkat cells exposed to 250 μM 5-FU (250 μM or 500 μM tested), 24 hours", "protocol": "Whether the cytotoxicity of 5-FU on Jurkat cells was caused by apoptosis was studied. In early apoptosis, phosphatidylserine (PS) localized on the inside of cell membrane exposes to the outside. PS is a molecule also relating to the recognition and phagocytosis of apoptotic cells by macrophages. The PS exposure is measured, whereby induction of early apoptosis can be confirmed. In late apoptosis, the cell membrane breaks, and the internal components leak out thereof. Therefore, the cells are combined with propidium iodide (PI) which is a membrane impermeable fluorescent dye, whereby the late apoptotic cells and early apoptotic cells can be clearly separated (refer to FIG. 3)."}, "in vitro": {"assay": "in vitro", "format": "cell-based", "settings": "human", "protocol": "In the following Test Examples, the human monocytic leukemia cell line THP-1 or human leukemia T cell line, Jurkat cell line was incubated at 37° C. under 5% CO2 for culture in the RPMI 1640 medium (containing 10% fetal bovine serum (FBS), 75 mg/L kanamycin, and 3.5 μL/L 2-mercaptoethanol).\nIn order to study the cytotoxicity of 5-FU on Jurkat cells, 5-FU was studied by MTT method. Jurkat cells prepared as 2.0×10^5 cells/mL were placed in a 96-well plate (Corning). 5-FU was added thereto so as to have final concentrations of 0, 10, 100, and 1000 μM, and the cells were then exposed thereto in a CO2 incubator at 37° C. for 24 hours. At the time point of the exposure over 23 hours, 10 μL of 3-[4,5-dimethylthiazol-2-yl]-2,5-diphenyltet-razolium bromide (MTT solution) (Wako) was added to each well, and the cells were then exposed thereto at 37° C. for 1 hour. After the exposure, the mixture was centrifuged at 1200 rpm for 5 minutes, the supernatant was discarded, 100 μL per well of DMSO was added, and the mixture was measured for absorbance at 570 nm using a microplate reader. […] Therefore, DMSO was added to dissolve the formazan precipitate, and the absorbance of the solution was measured at 570 nm. When the cells are alive, formazan is produced, and thus the solution can be measured at 570 nm."}, "macrophage-like cells": {"system": "macrophage-like cells", "assay": "TNF-α secretion from macrophage-like cells (ELISA)", "format": "cell-based, human", "settings": "added independently or in combination; ELISA of culture fluid", "excerpt": "Since the increase in phagocytosis of macrophage-like cells by the Aureobasidium culture fluid or Compound 1 was inferred to be the result of activity induction in the macrophage-like cells, it was attempted to see if it is true. Specifically, regarding TNF-α, a type of cytokines released by activity induction, how much this substance was secreted into a culture fluid of the macrophage-like cells to which the Aureobasidium culture fluid, Compound 1, or the Aureobasidium culture fluid plus Compound 1 was added was measured by ELISA according to an ordinary method."}, "[1]": {"system": "THP-1 cells differentiated into macrophage-like cells", "assay": "Cytokine gene expression in macrophage-like cells (RT-PCR, agarose gel electrophoresis)", "format": "cell-based, human", "settings": "7 hours, compared to group a (control)", "protocol": "Regarding TNF-α, IL-6, IL-12B, and IL-18, cytokines released when macrophage-like cells underwent activity induction, how much mRNA for these substances expressed in the macrophage-like cells to which the Aureobasidium culture fluid, Compound 1, or the Aureobasidium culture fluid plus Compound 1 was added was measured by RT-PCR according to an ordinary method. Specifically, first, the THP-1 cells differentiated into macrophage-like cells by the method of Test Example 1 were washed twice with PBS to remove undifferentiated THP-1 cells, and then divided into 9 groups, group a, group b, group c, group d, group e, group f, group g, group h, and group i. Subsequently, the Aureobasidium culture fluid and/or Compound 1 was added to each group so as to have the final concentrations as follows, and the mixture was incubated for 7 hours. Next, each group was washed with PBS, thereafter, 1 mL of Trizol (Invitrogen) was added to each, and the mixture was well suspended and left at room temperature for 5 minutes. […] After left at room temperature for 2 minutes, the mixture was centrifuged at 12000×g at 4° C. for 10 minutes. After centrifugation, 400 μL of the upper layer was collected and transferred to a new Eppendorf tube for 1.5 mL, and 500 μL of 2-propanol (Wako) was added and stirred, and then left at room temperature for 5 minutes. […] Thereafter, the mixture was centrifuged at 12000×g at 4° C. for 10 minutes. After centrifugation, the upper layer was discarded, 75% ethanol was added to the precipitate, and the mixture was centrifuged at 12000×g at 4° C. for 10 minutes. After centrifugation, the upper layer was discarded, and the resultant was suspended in 20 μL of milliQ water, thereby collecting the total mRNA. Subsequently, using the total mRNA of each group as a template, RT-PCR was performed using TaKaRa RNA PCR Kit (AMV) Ver 3.0 (TaKaRa), to prepare a template cDNA of each sample. The RT-PCR reaction solution composition and RT-PCR reaction conditions are as described below. […] RT reaction conditions: after reaction at 42° C. for 30 minutes, respective reactions at 95° C. for 5 minutes and 5° C. for 5 minutes were performed for 1 cycle using a thermal cycler (Bio Flux). Subsequently, PCR was performed using the template cDNA of each group as a template, to amplify each cDNA of TNF-α, IL-6, IL-12B, IL-18, and glyceraldehyde-3-phosphate dehydrogenase (GAPDH). Primers, the PCR reaction solution composition, and PCR reaction conditions are as described below. PCR reaction solution composition: 5×PCR buffer 10 μL, milliQ 28.75 μL, Ex Taq 0.25 μL, sense primer 0.5 μL, antisense primer 0.5 μL, whole amount of template cDNA of each sample. PCR reaction conditions: after reaction at 94° C. for 2 minutes, with respective reactions at 94° C. for 30 seconds, 60° C. for 30 seconds, and 72° C. for 1 minute as 1 cycle, 35 cycles were performed. Thereafter, the amount of PCR reaction product was confirmed by performing agarose gel electrophoresis according to the conventional method, whereby the expression levels of mRNA for TNF-α, IL-6, IL-12B, IL-18, and glyceraldehyde-3-phosphate dehydrogenase (GAPDH) were confirmed."}, "[2]": {"system": "THP-1 cells differentiated into macrophage-like cells", "assay": "Ability of macrophage-like cells to phagocytose polystyrene beads", "format": "cell-based, human", "settings": "500-fold vs 1000-fold dilution; 1 μM vs 10 μM", "experimental": "THP-1 cells (refer to FIG. 1 (A)) were seeded in a 24-well plate (Becton Dickinson Labware, Franklin Lakes, N.J.) at 2×10^5 cells/mL per well, and phorbol 12-myristate 13-acetate (PMA) (Wako) was added to each well so as to have a final concentration of 160 nM, and incubated at 37° C. under 5% CO2 for 72 hours, to give macrophage-like cells (refer to FIG. 1 (B)). After incubation, the cells were washed twice with sterilized PBS in order to remove undifferentiated THP-1 cells, and a fresh medium was added thereto, and the mixture was subjected to an experiment. The THP-1 cells differentiated into macrophage-like cells were prepared in a 24-well plate by the method of Test Example 1. Thereto were each added 500-fold and 1000-fold dilutions as final concentration of an Aureobasidium culture fluid, and the mixture was incubated for 4 hours. […] Thereafter, beads with a diameter of 10 μm were added to each well at a final concentration of 2 μL/mL (Trade name “Polybeads dyed violet” manufactured by Polysciences, Inc.), and the mixture was incubated for 3 hours to allow phagocytosis of the beads by the cells. After the incubation, each well was washed 3 times with sterilized PBS in order to remove beads that were not phagocyted. […] The number of beads phagocyted by the macrophage-like cells was measured with a phase contrast microscope. […]"}}}
{"smiles": "O=c1[nH]cc(F)c(=O)[nH]1", "note": "[Compound 5-FU, 5-fluorouracil]", "values": [{"measurement": "PS exposure (early apoptosis)", "setting": "Jurkat cells", "result": "much PS exposure"}, {"measurement": "IC50 at 24 h", "setting": "in vitro", "result": 450, "unit": "µM"}]}
{"smiles": "CCOCc1nc2c(N)nc3ccccc3c2n1CC(C)(C)O", "note": "[Compound 1, 4-Amino-2-(ethoxymethyl)-a,a-dimethyl-1H-imidazo[4,5-c]quinoline-1-ethanol]", "values": [{"measurement": "TNF-α secreted as compared to the case of adding nothing", "setting": "macrophage-like cells", "result": "larger amount"}, {"measurement": "expression level of mRNA for IL-12B", "setting": "[1]; group b: Compound 1 1 μM", "result": "increased"}, {"measurement": "expression level of mRNA for IL-18", "setting": "[1]; group b: Compound 1 1 μM", "result": "increased"}, {"measurement": "expression level of mRNA for TNF-α", "setting": "[1]; group b: Compound 1 1 μM", "result": "increased"}, {"measurement": "expression level of mRNA for IL-6", "setting": "[1]; group c: Compound 1 10 μM", "result": "increased"}, {"measurement": "expression level of mRNA for IL-12B", "setting": "[1]; group c: Compound 1 10 μM", "result": "increased"}, {"measurement": "expression level of mRNA for IL-18", "setting": "[1]; group c: Compound 1 10 μM", "result": "increased"}, {"measurement": "working concentration giving higher phagocytosis of polystyrene beads", "setting": "[2]", "result": "higher for 1 μM"}]}
